The text below walks through data of article PMC5940834, “Discovery and functional characterisation of a luqin-type neuropeptide signalling system in a deuterostome” (Scientific Reports, 2018).

In one experiment the test system is ArLQR2. In words: ArLQ/neuropeptide activation of ArLQR2, bioluminescence in CHO-ArLQR2 cells. Format: cell-based, Asterias rubens. The note with it: ArLQ 1 × 10^−4 to 1 × 10^−14 M, other neuropeptides 1 × 10^−4 to 1 × 10^−13 M. The text has this:
(§1) To enable pharmacological characterisation of ArLQR1 and ArLQR2, cDNAs encoding these receptors were amplified by PCR, using A. rubens radial nerve cord total cDNA, specific primers (see supplementary Table 1 for a list of the primers) and Q5 polymerase (NEB; Cat. No. M0491S). First, the receptor cDNAs were ligated into the phagemid vector pBluescript II SK + (Agilent Technologies; Cat. No. 212205) using a blunt-end ligation method. The vector was cut with the restriction enzyme EcoRV (NEB; Cat. No. R0195S) and the ligation was performed using T4 DNA ligase (NEB; Cat. No. M0202S). Successful ligation was confirmed by PCR, restriction enzyme digestion and sequencing (TubeSeq service; Eurofins Genomics). The receptor cDNAs were then sub-cloned into the eukaryotic expression vector pcDNA 3.1( + ) (Invitrogen; Cat. No. V790-20). To accomplish this, forward primers included the partial Kozak consensus sequence (ACC) and a sequence corresponding to the first 21 bases of the ArLQR1 or ArLQR2 ORFs, including the start codon. Reverse primers consisted of a stop codon and a sequence reverse complementary to the ORF encoding the C-terminal region of ArLQR1 or ArLQR2 (see supplementary Table 1 for a list of the primers). PCR was performed using Q5 polymerase NEB and the cDNA products were ligated into the pcDNA 3.1(+) vector that had been cut previously with the restriction enzyme EcoRV by performing blunt-end ligation with T4 DNA ligase NEB. The direction of the insert was determined by restriction enzyme digestion and sequencing. The ArLQR1 and ArLQR2 sequences have been deposited in the GenBank database under accession numbers MG744509 and MG744510 respectively.
(§2) To determine if ArLQ acts as a ligand for ArLQR1 and/or ArLQR2, the receptors were expressed in Chinese hamster ovary cells (CHO-K1) stably expressing the calcium-sensitive bioluminescent reporter GFP-aequorin fusion protein (G5A)[43]. CHO-K1 cells were maintained at 37 °C in T25 culture flasks (USA Scientific; Cat. No. CC7682-4325) containing 6 ml of DMEM/F12 Nutrient Mixture medium (Thermo Fisher Scientific; Cat. No. 11039047) supplemented with 10% fetal bovine serum (Thermo Fisher Scientific; Cat. No. 10082147), Antibiotic-Antimycotic 1 × (Thermo Fisher Scientific, Cat. No. 15240062) and 200 μg/ml of Geneticin G418 sulfate (Thermo Fisher Scientific, Cat. No. 10131035). Upon reaching a confluency of approximately 80%, cells were transfected with the plasmids containing ArLQR1 or ArLQR2 receptor cDNAs and a plasmid containing the promiscuous Gα-16 protein that can couple a wide range of GPCRs to the phospholipase C pathway. The transfection was achieved using 5 µg of each plasmid and 8 μl of the transfection reagent Lipofectamine 3000 following the manufacturer instructions (Thermo Fisher Scientific; Cat. No. L3000008). Two days post-transfection, the culture medium was removed and the cells detached by the addition of 2 ml of 1 × PBS buffer pH 7.4 (Thermo Fisher Scientific; Cat. No. 10010023) supplemented with UltraPure EDTA 0.5 M pH 8.0 (Thermo Fisher Scientific; Cat. No. 15575020) to a final concentration of 5 mM EDTA. […] Luminescence levels were recorded over a 35-second period using a FLUOstar Omega Plate Reader (BMG LABTECH; FLUOstar Omega Series multi-mode microplate reader). […]

A further experiment relates to ArLQR1. Briefly: ArLQ/neuropeptide activation of ArLQR1, bioluminescence in CHO-ArLQR1 cells. The following applies: ArLQ 1 × 10^−4 to 1 × 10^−14 M, other neuropeptides 1 × 10^−4 to 1 × 10^−13 M. In kind it is cell-based, Asterias rubens.
From the text: as §1, §2

A further experiment has as its system tube foot preparations. The following applies: A. rubens; cited from earlier work. An excerpt: Figure 6 ArLQ causes relaxation of in vitro preparations of tube feet from A. rubens. […] (B). […] Tube foot preparations were obtained by dissecting from starfish arms a small square-shaped piece of ambulacral body wall containing a single tube foot stem and its associated ampulla. Co ...

Experiment [1] deals with cardiac stomach preparations. The note with it: "all three of these preparations"; cited from earlier work. Here is the method: Informed by findings from analysis of the expression of ArLQP in A. rubens (see results), synthetic ArLQ (custom synthesized by PPR Ltd, Fareham, UK) was tested on tube foot and cardiac stomach preparations from A. rubens. […] Tube foot preparations were obtained by dissecting from starfish arms a small square-shaped piece of ambulacral body wall containing a single tube foot stem and its associated ampulla. Co ...

In experiment [2] the test system is neurons and muscles involved in feeding behaviour. The following applies: Achatina fulica; cited from earlier work. An excerpt:
(§3) Neuropeptides play a central role in the control of diverse physiological processes and behaviours in animals. Furthermore, neuropeptides are evolutionarily ancient mediators of neuronal signalling and a large number of different neuropeptide signalling pathways were already present in the common ancestor of protostomes and deuterostomes[1]–[3]. The discovery of neuropeptide signalling systems has been enabled by a variety of experimental strategies. The luqin-type neuropeptide system that is the focus of this study was first discovered using a molecular biological approach where the object ...

The test system of another experiment is heart ventricle. The following applies: Achatina fulica; cited from earlier work.
From the text: as §3

In the next experiment the test system is GRL106. The following applies: orphan G-protein coupled receptor; cited from earlier work.
From the text: as §3

For another experiment, the system named is auricle preparations. The following applies: Lymnaea stagnalis; cited from earlier work.
From the text: as §3

In experiment [3] the test system is receptor for the luqin-type peptide WRPGRFamide. The note with it: cited from earlier work.
From the text: as §3

“Also recorded” adds a separate entry of the source. Where no end group is shown, it is not given here.

On to “pQDRSKAMQAERTGQLRRLNPRF-NH2 [ArNPY, Neuropeptide Y-type peptide from A. rubens]”, for which, in the experiment on ArLQR2, the “activation of ArLQR2 (in words)” value is recorded as “do not activate the receptors; also recorded: none of them caused activation of the receptors”. Moreover, in the experiment on ArLQR1, the “activation of ArLQR1 (in words)” value is given as “do not activate the receptors; also recorded: none of them caused activation of the receptors”.
SGPYSFNSGLTF-NH2 [S2]: the “activation of ArLQR2 (in words)” value in the experiment with ArLQR2 is “do not activate the receptors”; with ArLQR2 (listed as SALMFamide-2), “none of them caused activation of the receptors”. In addition, the “relaxation of tube foot preparations (earlier studies)” value with tube foot preparations is “known tube foot relaxant; also recorded: causes relaxation of tube foot preparations; also recorded: relaxant of all three of these preparations”. Further, the “relaxant effect on cardiac stomach and other preparations (earlier studies)” value in [1] is reported as “relaxant of all three of these preparations”. Further, the “activation of ArLQR1 (in words)” value is “do not activate the receptors” in the experiment on ArLQR1 and “none of them caused activation of the receptors” with ArLQR1 (listed as SALMFamide-2).
Regarding “GGGVPHVFQSGGIF-NH2 [ArTK2, tachykinin-like peptide from A. rubens]”, the “activation of ArLQR2 (in words)” value in the experiment on ArLQR2 was “none of them caused activation of the receptors”; in the experiment on ArLQR2 (listed as ArTKL), “do not activate the receptors”. In addition, the “activation of ArLQR1 (in words)” value with ArLQR1 was “none of them caused activation of the receptors”; with ArLQR1 (listed as ArTKL), “do not activate the receptors”.
In the case of “SGQWRPQGRF-NH2 [ACEP-1, homolog of luqin (…amide) discovered in the snail Achatina fulica]”, the “effect on neurons and muscles involved in feeding behaviour” value in [2] is “excitatory effects on neurons and muscles involved in feeding behaviour”. In addition, the “effect on beat of the heart ventricle” value in the experiment on heart ventricle is “potentiating the beat of the heart ventricle”.
“TPHWRPQGRF-NH2 [LyCEP, luqin-type peptide (…amide) discovered in the pond snail Lymnaea stagnalis]”: in the experiment with GRL106, the “receptor identified for the peptide (GRL106)” value is “identified as the receptor for this peptide”. In addition, the “effect on beating frequency of auricle preparations” value in the experiment on auricle preparations is “increases the beating frequency of auricle preparations”.
Consider “WRPGRF-NH2 [luqin-type peptide of the annelid Platynereis dumerilii]”, for which, in [3], the “receptor identified for the peptide (P. dumerilii)” value was “has been identified in the annelid Platynereis dumerilii”.
